Holding throughout (assay): growth of human tumour cells (NCI), 48 h
Assay [1] deals with SK-MEL-28 melanoma.
Assay [2] concerns SK-MEL-5 melanoma.
Assay [3] concerns K-562 leukemia.
Assay [4] has as its system MALME-3M melanoma.
Assay [5] concerns M14 melanoma.
The test system of assay [6] is SK-OV-3 ovarian.
Assay [7] deals with SNB-19 CNS.
Assay [8] has as its system MCF7 breast.
The test system of assay [9] is OVCAR-4 ovarian.
The subject of assay [10] is U251 CNS.

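Grown in 96-well plates, cells were treated for 48 hours with each compound at five concentrations. Insufficient inhibition: endpoint recorded as highest concentration tested. GI50 marks 50% less growth. TGI denotes the concentration required for complete inhibition of growth.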 A value given as a limit tells only on which side of the number the result lay.

On to `CCc1c2c(nc3ccc(OC(=O)OCc4ccc(B5OC(C)(C)C(C)(C)O5)cc4)cc13)-c1cc3c(c(=O)n1C2)COC(=O)[C@]3(O)CC`, for which the GI50 in assay [1] was 0.262 µM; in assay [2], 0.0217 µM; in [3], 0.0368 µM; in [4], 0.0279 µM; in assay [5], under 0.01 µM; in [6] it was 0.0151 µM. Moreover, the GI50 in [7] is under 0.01 µM; in [8] it was under 0.01 µM; in assay [9], 0.21 µM; in [10], under 0.01 µM. Further, the TGI in [1] is 7.32 µM; in assay [2] it was 0.118 µM; in [3], over 100 µM; in [4], 0.637 µM; in assay [5], 0.92 µM; in [6], over 100 µM. The TGI is over 100 µM in [7], over 100 µM in assay [8], over 30.8 µM in [9] and over 34.3 µM in [10].
On to `COc1ccc(C(=O)/C=C/c2c(C(F)(F)F)nc3ccccn23)cc1OC`, for which the GI50 in assay [1] was 7.1 µM; in assay [2], 2.1 µM; in assay [3], 0.377 µM; in [4], 13.8 µM; in [5] it was 2.22 µM; in assay [6] it was 2.38 µM. Besides, the GI50 in assay [7] is 3.77 µM; in [8] it was 0.518 µM; in assay [9], 3.28 µM; in assay [10], 1.1 µM. Moreover, the TGI was over 100 µM in [1]; 20.1 µM in assay [2]; over 100 µM in assay [3]; over 100 µM in assay [4]; over 66.7 µM in assay [5]; 6.13 µM in [6]. The TGI was over 22 µM in assay [7], over 100 µM in [8], over 48.6 µM in [9] and over 100 µM in [10].
As to `COc1ccc2c(c1)C(=O)/C(=C/c1cccc(OCC(=O)c3ccc([N+](=O)[O-])cc3)c1)CO2`, the GI50 was 1.86 µM in [1]; 2.79 µM in assay [2]; 1.96 µM in assay [3]; 2.91 µM in assay [4]; 2.19 µM in [5]; 10.5 µM in [6]. The GI50 in assay [7] is 12.4 µM; in assay [8] it was 0.72 µM; in assay [9], 4.36 µM; in assay [10], 1.6 µM. For the same compound, the TGI in assay [1] was 3.7 µM; in assay [2], 8.05 µM; in assay [3] it was over 22.4 µM; in assay [4] it was 10.9 µM; in assay [5], 4.32 µM; in assay [6], 23 µM. Further, the TGI in assay [7] was 25.4 µM; in assay [8], 3.68 µM; in [9] it was 17.2 µM; in [10], 3.16 µM.
Regarding `O=c1oc2ccc(I)cc2c(=O)n1-c1ccc(I)cc1F`, the GI50 in assay [1] was 0.358 µM; in assay [2], 0.258 µM; in assay [3], 0.436 µM; in assay [4] it was 0.36 µM; in [5], 0.545 µM; in [6] it was 0.601 µM. The GI50 in assay [7] is 0.399 µM; in assay [8], 1.08 µM; in assay [9] it was 0.349 µM; in assay [10] it was 0.612 µM. Moreover, the TGI in assay [1] is 1.9 µM; in [2], 0.747 µM; in [3], over 100 µM; in assay [4], 2.54 µM; in assay [5], 5.87 µM; in assay [6], 2.71 µM. For the same compound, the TGI was over 100 µM in assay [7], 11.3 µM in assay [8], 18.4 µM in [9] and over 45.3 µM in assay [10].
For `C=C1C(=O)O[C@H]2[C@H]1CC/C(CNC(=O)C(C)c1ccc(CC(C)C)cc1)=C\CC[C@@]1(C)O[C@@H]21` (stereo partly drawn), the GI50 in [1] was 1.67 µM; in [2] it was 1.71 µM; in assay [3], 2.29 µM; in [4], 1.71 µM; in [5] it was 1.85 µM; in assay [6], 12.3 µM. For the same compound, the GI50 in assay [7] was 2.15 µM; in [8], 1.62 µM; in [9], 1.66 µM; in [10] it was 1.67 µM. Moreover, the TGI in [1] came to 3.32 µM; in assay [2], 3.08 µM; in [3], 10.4 µM; in [4] it was 3.36 µM; in [5] it was 3.98 µM; in assay [6], 24.8 µM. The TGI in assay [7] was determined as 5.67 µM; in assay [8], 3.68 µM; in assay [9], 3.13 µM; in [10] it was 3.1 µM.
On to `CCc1nc(N)nc(N)c1-c1ccc(N(C)Cc2ccccc2)c([N+](=O)[O-])c1`, for which the TGI is 17 µM in assay [1]; 4.32 µM in assay [2]; 3.98 µM in assay [3]; 17.1 µM in assay [4]; 11.3 µM in [5]; 33.6 µM in assay [6]. The TGI was 37.3 µM in assay [7], 15.9 µM in [8], 52.1 µM in [9] and 24.5 µM in assay [10].
In the case of `O=[N+]([O-])c1cc(C(F)(F)F)cc2n[se]nc12`, the TGI stood at 4.39 µM in [1]; 8.02 µM in assay [2]; 5.14 µM in [3]; 3.57 µM in [4]; 3.22 µM in [5]; 27.5 µM in [6]. The TGI in [7] is 29.5 µM; in [8] it was 4.07 µM; in [9] it was 3.84 µM; in [10], 29.5 µM.
`COc1cc(C(=O)c2cnc(-c3ccc4cc[nH]c4c3)[nH]2)cc(OC)c1OC`: the GI50 was 0.454 µM in assay [1]; 0.0385 µM in [2]; 0.0173 µM in assay [3]; 1.61 µM in [4]; 0.0358 µM in [6]; 0.0409 µM in assay [7]. In addition, the results for the GI50 in [8], in assay [9] and in [10] were 0.0376 µM, 0.993 µM and 0.0393 µM, respectively. The TGI in assay [1] worked out at 16 µM; in assay [2] it was 0.389 µM; in assay [3], 8.74 µM; in assay [4] it was 9.89 µM; in assay [6], 1.93 µM; in [7] it was 13.7 µM. The TGI was 11.4 µM in [8], 20 µM in assay [9] and 11 µM in assay [10].
With `CC(C)c1ccc(C(O)(C(=O)O)c2ccc(C(C)C)cc2)cc1`, the TGI in assay [1], in assay [2], in assay [3], in [4], in assay [5] and in [6] was over 100 µM throughout. Besides, the TGI is over 100 µM in assay [7], over 100 µM in assay [8], over 100 µM in assay [9] and 42.9 µM in assay [10].

Source of the values: PubChem BioAssay (NCI).
